The text below walks through data of patent publication US20110124715A1, “Antiviral Oligonucleotides Having a Conserved G4 Core Sequence” (priority 1992, published 2011).

“And” between values parts separate entries of the source, which are not always exact repeats. Identical values can stand only once. Strand notation (5' to 3'): a small letter for the sugar, then the base; units joined by * are phosphorothioate-linked, units joined directly phosphodiester-linked; [ ] holds rarer units or linkages, { } end groups; capitals alone tell only the bases. d = 2'-deoxy (DNA)

The target of the first data set is T1, human type II phospholipase A2 (Homo sapiens, UniProt P14555).
T1 sequence (P14555 21-144): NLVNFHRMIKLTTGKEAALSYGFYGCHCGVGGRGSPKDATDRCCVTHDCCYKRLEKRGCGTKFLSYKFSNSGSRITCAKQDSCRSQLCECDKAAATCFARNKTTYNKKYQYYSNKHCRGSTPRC
The data set can be described thus: Phospholipase A2 assay, 3H-oleic acid labelled E. coli substrate. Type of data set: biochemical. As to conditions: Table 4; 1 μM.
“3181 (antisense dT*dC*dT*dG*dC*dC*dC*dC*dG*dG*dC*dC*dG*dT*dC*dG*dC*dT*dC*dC*dC) [compound 3181]”: the “% Inhibition (1 μM)” value is listed as 42.7%. Still for that read-out and setting: with “3182 (antisense dC*dA*dG*dA*dG*dG*dA*dC*dT*dC*dC*dA*dG*dA*dG*dT*dT*dG*dT*dA*dT) [compound 3182]” the figure was 30.2%; with “3184 (antisense dT*dT*dC*dA*dT*dG*dG*dT*dA*dA*dG*dA*dG*dT*dT*dC*dT*dT*dG*dG*dG) [compound 3184]”, 25.1%; with “3185 (antisense CAAAGATCATGATCACTGCCA; phosphorothioate, chemistry not fully specified) [compound 3185]”, 22.7%. As for “3192 (dG*dG*dA*dA*dG*dG*dT*dT*dT*dC*dC*dA*dG*dG*dG*dA*dA*dG*dA*dG*dG) [compound 3192]”, the “% Inhibition (1 μM)” value was found to be 28.1%. As to “3193 (dC*dC*dT*dG*dC*dA*dG*dT*dA*dG*dG*dC*dC*dT*dG*dG*dA*dA*dG*dG*dA) [compound 3193]”, the “% Inhibition (1 μM)” value is listed as 22.6%. Still for that read-out and setting: with “3196 (dG*dG*dG*dT*dG*dG*dG*dT*dA*dT*dA*dG*dA*dA*dG*dG*dG*dC*dT*dC*dC) [compound 3196]” the figure was 98.5%. The same measure, in the same setting: with “3468 (dG*dG*dG*dA*dC*dT*dC*dA*dG*dC*dA*dA*dC*dG*dA*dG*dG*dG*dG*dT*dG) [compound 3468]” the figure was 97.5%; with “3470 (dG*dT*dA*dG*dG*dG*dA*dG*dG*dG*dA*dG*dG*dG*dT*dA*dT*dG*dA*dG*dA) [compound 3470]”, 88.9%; with “3471 (dA*dA*dG*dG*dA*dA*dC*dT*dT*dG*dG*dT*dT*dA*dG*dG*dG*dT*dA*dG*dG) [compound 3471]”, 34.5%. With “3472 (dT*dG*dG*dG*dT*dG*dA*dG*dG*dG*dA*dT*dG*dC*dT*dT*dT*dC*dT*dG*dC) [compound 3472]”, the “% Inhibition (1 μM)” value stood at 69.0%. Same read-out and setting: with “3473 (dC*dT*dG*dC*dC*dT*dG*dG*dC*dC*dT*dC*dT*dA*dG*dG*dA*dT*dG*dG*dG) [compound 3473]” the figure was 25.9%; with “3474 (dA*dT*dA*dG*dA*dA*dG*dG*dG*dC*dT*dC*dC*dT*dG*dC*dC*dT*dG*dG*dC) [compound 3474]”, 13.3%. The same measure, in the same setting: with “3475 (dT*dC*dT*dC*dA*dT*dT*dC*dT*dG*dG*dG*dT*dG*dG*dG*dT*dA*dT*dA*dG) [compound 3475]” the figure was 67.0%; with “3476 (dG*dC*dT*dG*dG*dA*dA*dA*dT*dC*dT*dG*dC*dT*dG*dG*dA*dT*dG*dT*dC) [compound 3476]”, 43.4%; with “3477 (dG*dT*dG*dG*dA*dG*dG*dA*dG*dA*dG*dC*dA*dG*dT*dA*dG*dA*dA*dG*dG) [compound 3477]”, 54.7%.

For the substance “3478 (dT*dG*dG*dT*dT*dA*dA*dG*dC*dA*dC*dG*dG*dA*dG*dT*dT*dG*dA*dG*dG) [compound 3478]”, the “% Inhibition (1 μM)” value stood at 26.4%. Consider “3479 (dC*dC*dG*dG*dA*dG*dT*dA*dC*dA*dG*dC*dT*dT*dC*dT*dT*dT*dG*dG*dT) [compound 3479]”, for which the “% Inhibition (1 μM)” value is listed as 42.3%. Still for that read-out and setting: with “3480 (dT*dT*dG*dC*dT*dT*dT*dA*dT*dT*dC*dA*dG*dA*dA*dG*dA*dG*dA*dC*dC) [compound 3480]” the figure was 24.5%; with “3481 (dT*dT*dT*dT*dT*dG*dA*dT*dT*dT*dG*dC*dT*dA*dA*dT*dT*dG*dC*dT*dT) [compound 3481]”, 2.2%; with “3628 (dG*dG*dA*dG*dC*dC*dC*dT*dT*dC*dT*dA*dT*dA*dC*dC*dC*dA*dC*dC*dC) [compound 3628]”, 13.6%. Consider “3629 (dC*dA*dC*dC*dC*dC*dT*dC*dG*dT*dT*dG*dC*dT*dG*dA*dG*dT*dC*dC*dC) [compound 3629]”, for which the “% Inhibition (1 μM)” value was 20.5%. On the same count and under the same terms, with “3630 (dT*dC*dT*dC*dA*dT*dA*dC*dC*dC*dT*dC*dC*dC*dT*dC*dC*dC*dT*dA*dC) [compound 3630]” the figure was 17.6%. With “3631 (dA*dG*dG*dT*dC*dG*dA*dG*dG*dA*dG*dT*dG*dG*dT*dC*dT*dG*dA*dG*dC) [compound 3631]”, the “% Inhibition (1 μM)” value is on record as 20.7%.

As to “3632 (dC*dC*dA*dG*dG*dA*dG*dA*dG*dG*dT*dC*dG*dG*dT*dA*dA*dG*dG*dC*dG) [compound 3632]”, the “% Inhibition (1 μM)” value is given as 29.2%. Still for that read-out and setting: with “3633 (dG*dT*dA*dG*dG*dG*dA*dT*dG*dG*dG*dA*dG*dT*dG*dA*dA*dG*dG*dA*dG) [compound 3633]” the figure was 58.5%; with “3659 (dT*dG*dC*dT*dC*dC*dT*dC*dC*dT*dT*dG*dG*dT*dG*dG*dC*dT*dC*dT*dC) [compound 3659]”, 38.2%; with “3663 (dC*dT*dC*dT*dG*dC*dT*dG*dG*dG*dT*dG*dG*dT*dC*dT*dC*dA*dA*dC*dT) [compound 3663]”, 16.3%. As to “3665 (dG*dG*dA*dC*dT*dG*dG*dC*dC*dT*dA*dG*dC*dT*dC*dC*dT*dC*dT*dG*dC) [compound 3665]”, the “% Inhibition (1 μM)” value is 45.8%. “3669 (dG*dG*dT*dG*dA*dC*dA*dA*dA*dT*dG*dC*dA*dG*dA*dT*dG*dG*dA*dC*dT) [compound 3669]”: the “% Inhibition (1 μM)” value is reported as 34.7%. Same read-out and setting: with “3671 (dT*dA*dG*dG*dA*dG*dG*dG*dT*dC*dT*dT*dC*dA*dT*dG*dG*dT*dA*dA*dG) [compound 3671]” the figure was 49.3%. The same measure, in the same setting: with “3676 (dA*dG*dC*dT*dC*dT*dT*dA*dC*dC*dA*dA*dA*dG*dA*dT*dC*dA*dT*dG*dA) [compound 3676]” the figure was 24.5%; with “3679 (dA*dG*dT*dA*dG*dG*dC*dC*dT*dG*dG*dA*dA*dG*dG*dA*dA*dA*dT*dT*dT) [compound 3679]”, 30.3%. Take “3688 (dT*dG*dG*dC*dC*dT*dC*dA*dC*dC*dG*dA*dT*dC*dC*dG*dT*dT*dG*dC*dA) [compound 3688]”: the “% Inhibition (1 μM)” value was determined as 43.1%. The same measure, in the same setting: with “3694 (dA*dC*dA*dG*dC*dA*dG*dC*dT*dG*dT*dG*dA*dG*dG*dA*dG*dA*dC*dA*dC) [compound 3694]” the figure was 28.2%; with “3697 (dA*dC*dT*dC*dT*dT*dA*dC*dC*dA*dC*dA*dG*dG*dT*dG*dA*dT*dT*dC*dT) [compound 3697]”, 39%. As for “3712 (dA*dG*dG*dA*dG*dT*dC*dC*dT*dG*dT*dT*dT*dT*dG*dA*dA*dA*dT*dC*dA) [compound 3712]”, the “% Inhibition (1 μM)” value is 31.8%.

As to “4133 (dA*dG*dT*dG*dC*dA*dC*dG*dT*dT*dG*dA*dG*dT*dA*dT*dG*dT*dG*dA*dG) [compound 4133]”, the “% Inhibition (1 μM)” value turned out to be 37.3%. On to “4149 (dC*dT*dA*dC*dG*dG*dC*dA*dG*dA*dG*dA*dC*dG*dA*dG*dA*dT*dA*dG*dC) [compound 4149]”, for which the “% Inhibition (1 μM)” value was 20.2%.

The same data set, now with this note: Table 5; 1 μM; two separate experiments.
Regarding “3196 (dG*dG*dG*dT*dG*dG*dG*dT*dA*dT*dA*dG*dA*dA*dG*dG*dG*dC*dT*dC*dC) [compound 3196]”, the “% Inhibition (1 μM)” value is 100% and 76.2%. Regarding “4672 (dG*dG*dG*dT*dG*dG*dG*dT*dA*dT*dA*dG) [compound 4672]”, the “% Inhibition (1 μM)” value was 73.9% and 94.6%. Consider “4946 (dG*dG*dG*dT*dG*dG*dG*dA*dA*dT*dA*dG) [compound 4946]”, for which the “% Inhibition (1 μM)” value worked out at 73.2%.

The same data set, now with this note: b86; fold higher.
As to “3628 (dG*dG*dA*dG*dC*dC*dC*dT*dT*dC*dT*dA*dT*dA*dC*dC*dC*dA*dC*dC*dC) [compound 3628]”, the “I.C.50 relative to ISIS 3196” value is “approximately 10 fold”.
